In patent US7192905B1, “Organophosphate insecticide synergists for fly and tick control” (priority 2003, dated 2007):

What was measured:
[1] = system: Santa Luiza strain of the southern cattle tick, larvae; assay: FAO larval packet test, Santa Luiza strain (Example 5); settings: for resistance of the strain: Santa Luiza strain
[2] = system: horn fly (Oklahoma strain, challenged with diazinon); assay: Horn fly adult treated filter paper bioassay, Oklahoma strain (Example 2); type: in vivo, Haematobia irritans irritans; settings: for effect on coumaphos toxicity / effect on diazinon toxicity / effect on pirimiphos-methyl toxicity: triazine applied as 1% w/v solution, mortality after 2 hours; for effect on toxicity of chlorpyrifos: very high chlorpyrifos levels (140.2 μg/cm^2 and above), triazine 1% w/v
Procedure: The horn fly strain used in this trial (referred to as the Kerrville strain) is an in vitro strain being maintained on citrated bovine blood, and serves as a susceptible reference strain. Adult flies were exposed to organophosphate pesticide alone or in combination with varying ratios of atrazine or propazine (shown in FIGS. 1–8). […] Compounds were dissolved in acetone and applied onto filter paper, which was then placed into petri dishes with the adult flies and held at room temperature under normal lighting conditions. Flies were examined for mortality after 2 hours.
The bioassays of Example 1 were repeated using an in vivo strain (referred to as the Oklahoma strain) maintained on steers. This horn fly strain was established using eggs from flies collected from cattle at an Oklahoma State University research ranch. The strain is maintained in vivo on steers at the USDA-ARS-KBUSLIRL, and has been challenged with diazinon. Conditions for the bioassay were the same as Example 1 except for the addition of the organophosphate fenthion, and the triazine synergists were applied as a 1% w/v solution.

[3] = system: horn fly (Kerrville strain, susceptible reference strain); assay: Horn fly adult treated filter paper bioassay, Kerrville strain (Example 1); type: in vivo, Haematobia irritans irritans; settings: mortality after 2 hours; for effect on toxicity of chlorpyrifos: combined with chlorpyrifos 8.0 μg/cm^2; for effect on toxicity of coumaphos: combined with coumaphos 10 μg/cm^2; for effect on toxicity of pirimiphos-methyl: combined with pirimiphos-methyl 3.0 μg/cm^2
Procedure: The horn fly strain used in this trial (referred to as the Kerrville strain) is an in vitro strain being maintained on citrated bovine blood, and serves as a susceptible reference strain. Adult flies were exposed to organophosphate pesticide alone or in combination with varying ratios of atrazine or propazine (shown in FIGS. 1–8). Concentrations of diazinon, pirimiphos-methyl, chlorpyrifos and coumaphos were 2.8, 3.0, 8.0, and 10 μg/cm^2, respectively (measured as the amount of pesticide applied per unit area of filter paper). Compounds were dissolved in acetone and applied onto filter paper, which was then placed into petri dishes with the adult flies and held at room temperature under normal lighting conditions. Flies were examined for mortality after 2 hours.

[4] = system: Pesqueria strain of the southern cattle tick, larvae; assay: FAO larval packet test, Pesqueria strain (Example 6); settings: for resistance of the strain: Pesqueria strain; for mortality: 0.1% coumaphos alone
brown dog tick larvae = assay: FAO larval packet test, brown dog tick (Example 8); settings: for effect on larvae: coumaphos alone
[5] = system: San Felipe strain of the southern cattle tick, larvae; assay: FAO larval packet test, San Felipe strain (Example 4); type: in vivo, Boophilus microplus
Procedure: The bioassays were conducted using the same process as described in Example 3, using the San Felipe strain of the southern cattle tick.

[6] = system: San Roman strain of the southern cattle tick, larvae; assay: FAO larval packet test, San Roman strain (Example 3)
Procedure: The strain used in these bioassays was the San Roman strain of the southern cattle tick (Boophilus microplus). […] The FAO larval packet test (LPT) was used to measure the susceptibility of tick larvae to acaricides. Dilutions of acaricide were prepared, dissolving the acaricide in trichloroethylene, then mixed with olive oil (ratio=2:1). A volume of 0.7 ml of the dilution was applied uniformly onto a piece of filter paper, and allowed to dry for 2 hr (trichloroethylene evaporates). The treated filter papers were folded into “packets” using bulldog clips, and approximately 100 larvae were added into each of “pockets”, which were then kept in a incubator (27° C., 90% RH) for 24 h before reading (# of dead and alive were counted under a magnifying glass).
In a first trial, tick larvae were exposed to 1% atrazine alone or in combination with 0.3, 0.6, or 1.2% w/v coumaphos.
In a second trial, tick larvae were exposed to varying concentrations of atrazine with either 0.3% coumaphos, 0.1 or 0.05% diazinon, or 0.01% coumaphos.

[7] = system: Munoz strain of the southern cattle tick, larvae; assay: FAO larval packet test, Munoz strain (Example 7)

Cc1ccc(/N=C/N(C)/C=N/c2ccc(C)cc2C)c(C)c1 [amitraz]
resistance of the strain [1]: 70 fold

CC(C)Nc1nc(Cl)nc(NC(C)C)n1 [propazine]
effect on coumaphos toxicity [2]: substantially as described in Example 1
effect on diazinon toxicity [2]: substantially as described in Example 1
effect on pirimiphos-methyl toxicity [2]: substantially as described in Example 1
effect on toxicity of chlorpyrifos [2]: did synergize
effect on toxicity of chlorpyrifos [3]: neither atrazine nor propazine had any effect
effect on toxicity of coumaphos [3]: reduced the toxicity
effect on toxicity of pirimiphos-methyl [3]: synergized

CCOP(=S)(OCC)Oc1cc(C)nc(C(C)C)n1 [diazinon]
resistance of the strain [4]: very high level of resistance
resistance of the strain [1]: 2.6 fold

CCNc1nc(Cl)nc(NC(C)C)n1 [atrazine]
effect on coumaphos toxicity [2]: substantially as described in Example 1
effect on diazinon toxicity [2]: substantially as described in Example 1
effect on pirimiphos-methyl toxicity [2]: substantially as described in Example 1
effect on toxicity of chlorpyrifos [2]: did synergize
mortality (brown dog tick larvae; atrazine alone 0.8%): 25.7%
mortality (brown dog tick larvae; atrazine alone 1.0%): 18.9%
mortality (brown dog tick larvae; atrazine alone at or below 0.4%): less than 4%
effect on toxicity of chlorpyrifos [3]: neither atrazine nor propazine had any effect
effect on toxicity of coumaphos [3]: reduced the toxicity
effect on diazinon activity (fly mortality) ([3]; combined with diazinon 2.8 μg/cm^2, even at low ratio 0.25/1): significant synergistic effect
effect on toxicity of pirimiphos-methyl [3]: synergized
effect on coumaphos toxicity ([4]; 0.1% coumaphos, atrazine/coumaphos ratio 2/1 and above, both trials): significantly enhanced
effect on toxicity of diazinon ([4]; 0.25% diazinon): significantly enhanced
toxicity of atrazine alone ([5]; all concentrations except 0.8%): virtually non-toxic
mortality ([5]; atrazine alone at 0.8%): 5.2%
synergism with coumaphos ([5]; combined with 0.1% coumaphos, even at lowest atrazine/coumaphos ratio 0.125/1): significant synergism
synergism with diazinon ([6]; 0.1 or 0.05% diazinon, weaker than with coumaphos): Synergism was also observed
effect on coumaphos toxicity ([6]; 1% atrazine with 0.3, 0.6 or 1.2% w/v coumaphos, first trial, 24 h): dramatically increased
mortality ([6]; atrazine with 0.3% coumaphos, atrazine/coumaphos ratio 2/1, 24 h): 100%
effect on chlorpyrifos toxicity ([6]; high atrazine/chlorpyrifos ratios (8/1 and above)): synergized
effect on toxicity of 0.3% coumaphos ([6]; varying atrazine concentrations, even at atrazine/coumaphos ratio 0.25/1, second trial): strongly synergized
effect on toxicity of chlorpyrifos ([7]; 0.01% chlorpyrifos): significantly enhanced
synergism with coumaphos ([7]; 0.01% coumaphos): varying levels of synergism
synergism with diazinon ([7]; higher diazinon concentration 0.05% (data not shown)): synergistic effect of atrazine was observed even at low atrazine/diazinon ratios
synergism with diazinon ([7]; very low diazinon 0.005%, ratio 32/1): only provided a synergistic effect at high atrazine/diazinon ratios
synergism with coumaphos ([1]; 0.05% coumaphos, atrazine/coumaphos ratios of 2/1 and above): Significant synergism
synergism with diazinon ([1]; diazinon 0.025%, similar ratios, to a lesser extent than coumaphos): Synergism was also observed

CCOP(=S)(OCC)Oc1ccc2c(C)c(Cl)c(=O)oc2c1 [coumaphos]
mortality (brown dog tick larvae; 0.035% coumaphos used with the synergist atrazine (1%)): greater than 60%
effect on larvae (brown dog tick larvae; higher concentrations): mortality increased
effect on larvae (brown dog tick larvae; less than or equal to 0.035%): no effect
mortality ([4]; first trial): 42.6%
mortality ([4]; repeated trial): 10.1%
resistance of the strain [4]: low resistance
effect on larvae (mortality) ([6]; 0.3% coumaphos alone, 24 h): virtually no effect
resistance of the strain to the acaricide ([6]; compared with all strains tested): highest resistance
mortality ([7]; coumaphos alone 0.01%, similar to the control): 36%
resistance of the strain [1]: 5.5 fold
mortality ([1]; coumaphos alone at 0.05%): 28.9%

CC1(C)C(C=C(Cl)Cl)C1C(=O)OCc1cccc(Oc2ccccc2)c1 (stereo not shown) [permethrin]
resistance of the strain [1]: 200 fold
